Where “and” joins values, the source holds several entries; their conditions need not be identical. Identical values can stand only once. Inconclusive results and toxic doses are left out.

The source of these data is PubChem BioAssay AID330 (DTP/NCI, 2004).

The test system of this assay is P388 leukemia ip, CD2F1 mice, survival T/C. In words: NCI In Vivo Anticancer Drug Screen. Data for tumor model P388 Leukemia (intraperitoneal) in CD2F1 (CDF1) mice. Conditions: endpoint: median survival time, higher = longer survival. A digest of the protocol:
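Mice carrying the transplanted tumor received test compound or vehicle. Survival was recorded in each group, and the value is the treated-group measurement divided by that of the vehicle-treated control group.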

[1] abbreviates: dose: 50.0 mg/kg/injection, schedule: Q01DX009 (ip), vehicle: saline with Tween-80.
Where [2] appears, read: dose: 100.0 mg/kg/injection, schedule: Q01DX009 (ip), vehicle: saline with Tween-80.
Where [3] appears, read: dose: 200.0 mg/kg/injection, schedule: Q01DX009 (ip), vehicle: saline with Tween-80.
[4] abbreviates: dose: 100.0 mg/kg/injection, schedule: Q04DX002 (ip), vehicle: saline.
The mark [5] stands for this setting: dose: 200.0 mg/kg/injection, schedule: Q04DX002 (ip), vehicle: saline.
Where [6] appears, read: dose: 400.0 mg/kg/injection, schedule: Q04DX002 (ip), vehicle: saline.
Setting [7] is: dose: 50.0 mg/kg/injection, schedule: Q01DX005 (ip), vehicle: saline with Tween-80.
The mark [8] stands for this setting: dose: 100.0 mg/kg/injection, schedule: Q01DX005 (ip), vehicle: saline with Tween-80.
The mark [9] stands for this setting: dose: 200.0 mg/kg/injection, schedule: Q01DX005 (ip), vehicle: saline with Tween-80.
[10] abbreviates: dose: 60.0 mg/kg/injection, schedule: Q01DX005 (ip), vehicle: saline with Tween-80.
Setting [11] is: dose: 120.0 mg/kg/injection, schedule: Q01DX005 (ip), vehicle: saline with Tween-80.
[12] abbreviates: dose: 240.0 mg/kg/injection, schedule: Q01DX005 (ip), vehicle: saline with Tween-80.
Setting [13] is: dose: 50.0 mg/kg/injection, schedule: Q01DX005 (ip), vehicle: Klucel (hydroxypropylcellulose) (HPC).

Take `OC1(c2ccccc2)CCN(c2c3ccccc3nc3ccccc23)CC1`: the T/C was 118 % of control (dose: 100.0 mg/kg/injection, schedule: Q04DX002 (ip), vehicle: Klucel (hydroxypropylcellulose) (HPC)) and 119 % of control (dose: 200.0 mg/kg/injection, schedule: Q04DX002 (ip), vehicle: Klucel (hydroxypropylcellulose) (HPC)).
In the case of `CN(C)N=Nc1ccc(NC(N)=O)cc1`, the T/C (dose: 100.0 mg/kg/injection, schedule: Q04DX003 (ip), vehicle: saline + Tween-80 + alcohol) was 154 % of control.
Regarding `CN(C)CC1CC/C=C\C(c2ccccc2)N(C)C1c1ccccc1` (stereo not given), the T/C was 105 % of control (dose: 100.0 mg/kg/injection, schedule: Q04DX003 (ip), vehicle: suspension in saline); 116 % of control (dose: 200.0 mg/kg/injection, schedule: Q04DX003 (ip), vehicle: suspension in saline); 99 % of control (dose: 400.0 mg/kg/injection, schedule: Q04DX003 (ip), vehicle: suspension in saline).
As to `O[O][Sn][c]1ccccc1`, the T/C is, setting by setting: under setting [1], 100 % of control; under setting [2], 100 % of control; under setting [3], 86 % of control.
Regarding `CC(=O)OC1OC(=O)C(C)(C(C)=O)C1C` (stereo not given), the T/C is, setting by setting: (dose: 12.5 mg/kg/injection, schedule: Q01DX005 (ip), vehicle: distilled water + alcohol) 100 % of control; (dose: 25.0 mg/kg/injection, schedule: Q01DX005 (ip), vehicle: distilled water + alcohol) 100 % of control.
For the compound `Cn1c2nc(-[n+]3ccc(Cc4ccccc4)cc3)nc-2c([O-])n(C)c1=O`, the T/C is 100 % of control under setting [4], 99 % of control under setting [5] and 95 % of control under setting [6].
Consider `N#CC(CCCC(C#N)(c1ccccc1)c1ccccc1)(c1ccccc1)c1ccccc1`, for which the T/C by setting is: (dose: 100.0 mg/kg/injection, schedule: Q01DX001 (ip), vehicle: Klucel (hydroxypropylcellulose) (HPC)) 100 % of control; (dose: 200.0 mg/kg/injection, schedule: Q01DX001 (ip), vehicle: Klucel (hydroxypropylcellulose) (HPC)) 101 % of control; (dose: 400.0 mg/kg/injection, schedule: Q01DX001 (ip), vehicle: Klucel (hydroxypropylcellulose) (HPC)) 105 % of control.
Regarding `Nc1c(Br)cc(Br)c2c1C(=O)c1c(cccc1S(=O)(=O)O)C2=O`, the T/C was 102 % of control under setting [7], 98 % of control under setting [8] and 107 % of control under setting [9].
Turning to `COC(=O)C1(C)N=NN=C1N(C)C` (stereo not given), the T/C under setting [4] is 101 % of control, the T/C under setting [5] is 100 % of control and the T/C under setting [6] is 101 % of control.
As to `N[C@@H](C(=O)O)[C@@H]1C=CCCC1`, the T/C is 101 % of control under setting [4] and 94 % of control under setting [5].
As to `CCOC(=O)NNCC(=O)O`, the T/C (dose: 12.5 mg/kg/injection, schedule: Q01DX009 (ip), vehicle: water) was 104 % of control; the T/C (dose: 25.0 mg/kg/injection, schedule: Q01DX009 (ip), vehicle: water) was 105 % of control; the T/C (dose: 50.0 mg/kg/injection, schedule: Q01DX009 (ip), vehicle: water) was 101 % of control; the T/C (dose: 100.0 mg/kg/injection, schedule: Q01DX009 (ip), vehicle: water) is 94 % of control; the T/C (dose: 200.0 mg/kg/injection, schedule: Q01DX009 (ip), vehicle: water) is 98 % of control.
As for `Cc1nc2c(N)n[nH]c(=O)n2n1`, the T/C is, setting by setting: under setting [10], 103 % of control; under setting [11], 100 % of control; under setting [12], 99 % of control.
Regarding `O=C1CCC(c2n[nH]c(=S)n2-c2ccccc2)N1Cc1ccccc1` (stereo not given), the T/C is, setting by setting: under setting [10], 101 % of control; under setting [11], 94 % of control; under setting [12], 90 % of control.
For the compound `CC(C)CS(=O)(=O)c1ncnc2nc[nH]c12`, the T/C is 102 % of control under setting [13]; 97 % of control (dose: 100.0 mg/kg/injection, schedule: Q01DX005 (ip), vehicle: Klucel (hydroxypropylcellulose) (HPC)); 91 % of control (dose: 200.0 mg/kg/injection, schedule: Q01DX005 (ip), vehicle: Klucel (hydroxypropylcellulose) (HPC)).
Regarding `Nc1c(-c2ccc(C3=NCCN3)cc2)[nH]c2cc(C3=NCCN3)ccc12`, the T/C (dose: 6.25 mg/kg/injection, schedule: Q01DX005 (ip), vehicle: Klucel (hydroxypropylcellulose) (HPC)) was 100 % of control; the T/C (dose: 12.5 mg/kg/injection, schedule: Q01DX005 (ip), vehicle: Klucel (hydroxypropylcellulose) (HPC)) was 118 % of control; the T/C under setting [13] was 196 % of control.
For the compound `O=c1[nH]cnc2c1ccc1[nH]ncc12`, the T/C runs as follows: (dose: 6.25 mg/kg/injection, schedule: Q01DX005 (ip), vehicle: saline with Tween-80) 88 % of control; (dose: 12.5 mg/kg/injection, schedule: Q01DX005 (ip), vehicle: saline with Tween-80) 90 % of control; (dose: 25.0 mg/kg/injection, schedule: Q01DX005 (ip), vehicle: saline with Tween-80) 86 % of control; under setting [7], 97 % of control; under setting [8], 99 % of control.
Turning to `C[N+]1(Cc2ccccc2)C2CCC(O)C1CC2` (stereo not given), the T/C (dose: 15.0 mg/kg/injection, schedule: Q01DX005 (ip), vehicle: saline) is 103 % of control; the T/C (dose: 30.0 mg/kg/injection, schedule: Q01DX005 (ip), vehicle: saline) was 100 % of control; the T/C (dose: 60.0 mg/kg/injection, schedule: Q01DX005 (ip), vehicle: saline) was 102 % of control.
On to `COc1ccc(CNC(=O)C(CO)N2C(=O)c3ccccc3C2=O)cc1` (stereo not given), for which the T/C reads like this: under setting [7], 96 % of control; under setting [8], 100 % of control; under setting [9], 90 % of control.
Regarding `CC1(c2ccccc2)NC(=O)N(CC(=O)N(c2ccccc2)c2ccccc2)C1=O` (stereo not given), the T/C was 91 % of control (dose: 7.5 mg/kg/injection, schedule: Q01DX005 (ip), vehicle: saline with Tween-80); 92 % of control (dose: 15.0 mg/kg/injection, schedule: Q01DX005 (ip), vehicle: saline with Tween-80); 92 % of control and 93 % of control (dose: 30.0 mg/kg/injection, schedule: Q01DX005 (ip), vehicle: saline with Tween-80); 87 % of control and 88 % of control under setting [10]; 86 % of control under setting [11]; 94 % of control under setting [12].
For `O=S(=O)(c1ccccc1)N1CN2CCN(C2)C1`, the T/C is 123 % of control under setting [1] and 150 % of control under setting [3].
With `CC(=O)N(Cc1ccccc1)c1nccs1`, the T/C by setting is: under setting [7], 104 % of control; under setting [8], 99 % of control; under setting [9], 90 % of control.
With `COc1ccc(C(=O)c2cccnc2C(=O)O)cc1`, the T/C by setting is: under setting [1], 105 % of control; under setting [2], 107 % of control; under setting [3], 107 % of control.
With `Cc1[nH]c2ccccc2c1CCCO`, the T/C was 105 % of control (dose: 50.0 mg/kg/injection, schedule: Q01DX005 (ip), vehicle: saline); 100 % of control (dose: 100.0 mg/kg/injection, schedule: Q01DX005 (ip), vehicle: saline); 105 % of control (dose: 200.0 mg/kg/injection, schedule: Q01DX005 (ip), vehicle: saline).
As for `CC/C(=N\Nc1cc(C)[nH]c(=O)c1)c1ccccc1`, the T/C was 98 % of control (dose: 100.0 mg/kg/injection, schedule: Q01DX001 (ip), vehicle: saline with Tween-80); 86 % of control (dose: 200.0 mg/kg/injection, schedule: Q01DX001 (ip), vehicle: saline with Tween-80); 89 % of control (dose: 400.0 mg/kg/injection, schedule: Q01DX001 (ip), vehicle: saline with Tween-80).
On to `O=C(NC(CSSCC(NC(=O)c1ccccc1)C(=O)O)C(=O)O)c1ccccc1` (stereo not given), for which the T/C reads like this: under setting [1], 109 % of control; under setting [2], 90 % of control; under setting [3], 101 % of control; (dose: 400.0 mg/kg/injection, schedule: Q01DX009 (ip), vehicle: saline with Tween-80) 93 % of control.
With `FC(F)(F)c1ccc(C2(c3ccccc3)C=C(c3ccccc3)SC(c3ccccc3)=C2)cc1`, the T/C reads like this: (dose: 50.0 mg/kg/injection, schedule: Q01DX009 (ip), vehicle: Klucel (hydroxypropylcellulose) (HPC)) 102 % of control; (dose: 100.0 mg/kg/injection, schedule: Q01DX009 (ip), vehicle: Klucel (hydroxypropylcellulose) (HPC)) 94 % of control; (dose: 200.0 mg/kg/injection, schedule: Q01DX009 (ip), vehicle: Klucel (hydroxypropylcellulose) (HPC)) 97 % of control.
